Experimental data taken from patent US20070021439A1, “Methods of reducing risk of infection from pathogens with soluble amide and ester pyrazinoylguanidine sodium channel blockers” (Parion Sciences, Inc., priority 2005, published 2007).
Where a name gives a salt, the structure may show the parent alone. Read-outs that look alike come from different tables or passages of the source.

Tests used:
[1] = Solubility of compounds in sodium chloride solution; assay type: physicochemical; conditions: saline or isotonic, thermodynamic from solid, ambient temperature
Method: Compound solubility was measured in water, 0.12 or 0.9% sodium chloride solution at ambient temperature for up to 10 days. Using a UV/Visable Spectrophotometer and applying Beer's Law with the calculated extinction coefficient of amiloride (18.6 mM, absorbance values at 362 nm taken from D. Mazzo 1986) the free base concentration in solution was calculated at specified time points. All samples were stored for the duration of the experiment in a single/closure system consisting of glass vials with a stopper-top closure. The vials were maintained at ambient temperature, in the dark, and in the upright position. Compound stability was measured using reverse phase high performance liquid chromatography on the final filtered pulled sample (day 10).
Table 2 gives the solubility in saline of selected amide bis methane sulfonic acid salts and compares them to the mono addition methane sulfonic acid salt of PSA 9714.

[2] = target: T1, ENaC (epithelial sodium channel) (Canis lupus familiaris, UniProt A0A8I3MKE6+A0A8I3Q679+Q95165); test: Epithelial sodium channel blocking activity (short circuit current, Ussing chambers) in canine bronchial epithelium; assay type: cell-based; conditions: for Fold Amiloride (PSA4022 = 100): relative potency, PSA4022 = 100, using IC50 from PSA4022 in same run
T1 construct: endogenous in cells; host or cells: primary canine bronchial (airway) epithelial cells cultured at air-liquid interface, mounted in Ussing chambers
T1 sequence (A0A8I3Q679 1-649): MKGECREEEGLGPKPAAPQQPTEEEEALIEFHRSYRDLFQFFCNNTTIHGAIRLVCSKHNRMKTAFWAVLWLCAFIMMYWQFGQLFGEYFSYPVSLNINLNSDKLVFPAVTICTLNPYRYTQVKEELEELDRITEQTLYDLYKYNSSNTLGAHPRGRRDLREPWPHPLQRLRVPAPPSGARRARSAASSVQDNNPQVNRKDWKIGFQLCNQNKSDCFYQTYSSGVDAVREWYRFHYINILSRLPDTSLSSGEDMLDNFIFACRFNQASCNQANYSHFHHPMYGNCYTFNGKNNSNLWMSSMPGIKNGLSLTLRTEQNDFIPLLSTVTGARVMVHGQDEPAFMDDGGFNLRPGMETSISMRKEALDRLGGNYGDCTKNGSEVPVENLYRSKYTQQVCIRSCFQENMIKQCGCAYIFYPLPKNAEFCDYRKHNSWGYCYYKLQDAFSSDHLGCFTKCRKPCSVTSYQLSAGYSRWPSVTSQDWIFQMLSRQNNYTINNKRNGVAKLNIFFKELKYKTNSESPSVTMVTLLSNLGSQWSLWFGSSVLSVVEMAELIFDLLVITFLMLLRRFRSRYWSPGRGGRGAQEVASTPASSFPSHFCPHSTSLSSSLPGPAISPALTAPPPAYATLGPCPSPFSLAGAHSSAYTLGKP
T1 sequence (Q95165 1-641): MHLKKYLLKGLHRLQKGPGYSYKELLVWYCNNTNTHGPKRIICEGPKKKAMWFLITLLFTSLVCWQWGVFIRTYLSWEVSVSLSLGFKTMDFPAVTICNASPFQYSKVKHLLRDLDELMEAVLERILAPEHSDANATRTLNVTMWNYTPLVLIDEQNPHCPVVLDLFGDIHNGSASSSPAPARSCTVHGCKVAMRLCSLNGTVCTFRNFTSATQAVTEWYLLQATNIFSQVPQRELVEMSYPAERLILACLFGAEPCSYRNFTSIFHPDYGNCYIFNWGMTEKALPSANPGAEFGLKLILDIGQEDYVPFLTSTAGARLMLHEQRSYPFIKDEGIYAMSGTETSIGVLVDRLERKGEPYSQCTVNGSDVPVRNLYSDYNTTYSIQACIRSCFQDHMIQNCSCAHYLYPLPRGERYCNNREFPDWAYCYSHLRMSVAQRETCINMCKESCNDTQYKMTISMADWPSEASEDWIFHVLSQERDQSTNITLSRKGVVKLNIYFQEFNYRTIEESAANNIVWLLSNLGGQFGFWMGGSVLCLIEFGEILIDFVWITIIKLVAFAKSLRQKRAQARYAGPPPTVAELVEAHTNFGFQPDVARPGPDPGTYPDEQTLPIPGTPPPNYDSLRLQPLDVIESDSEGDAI
T1 sequence (A0A8I3MKE6 1-646): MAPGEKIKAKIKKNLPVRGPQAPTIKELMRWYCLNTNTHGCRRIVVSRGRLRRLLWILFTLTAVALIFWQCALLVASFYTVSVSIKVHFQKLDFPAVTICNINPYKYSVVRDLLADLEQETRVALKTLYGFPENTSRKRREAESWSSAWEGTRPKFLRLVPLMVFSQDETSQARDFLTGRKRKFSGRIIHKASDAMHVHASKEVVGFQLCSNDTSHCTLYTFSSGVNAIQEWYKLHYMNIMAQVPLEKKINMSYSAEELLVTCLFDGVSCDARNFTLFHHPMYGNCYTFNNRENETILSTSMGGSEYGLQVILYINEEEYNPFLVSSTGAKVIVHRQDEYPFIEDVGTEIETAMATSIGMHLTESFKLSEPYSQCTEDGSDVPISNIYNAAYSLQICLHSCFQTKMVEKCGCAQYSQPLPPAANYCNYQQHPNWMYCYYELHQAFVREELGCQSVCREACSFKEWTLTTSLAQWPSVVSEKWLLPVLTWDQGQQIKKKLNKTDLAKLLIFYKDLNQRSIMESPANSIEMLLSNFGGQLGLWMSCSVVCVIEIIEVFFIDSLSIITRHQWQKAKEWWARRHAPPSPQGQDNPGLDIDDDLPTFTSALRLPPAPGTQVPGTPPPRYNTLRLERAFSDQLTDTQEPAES
Method: One assay used to assess mechanism of action and/or potency of the compounds of Formula I involves the determination of lumenal drug inhibition of airway epithelial sodium currents measured under short circuit current (ISC) using airway epithelial monolayers mounted in Ussing chambers. Cells obtained from freshly excised human, dog or sheep airways are seeded onto porous 0.4 micron Snapwell™ Inserts (CoStar), cultured at air-liquid interface (ALI) conditions in hormonally defined media, and assayed for sodium transport activity (ISC in μA/cm^2) while bathed in Krebs Bicarbonate Ringer (KBR) in Ussing chambers. All test drug additions are to the lumenal bath with half-log dose addition protocols (from 1×10^−11 M to 3×10^−5 M), and the cumulative change in ISC (inhibition) recorded. All drugs are prepared in dimethyl sulfoxide as stock solutions at a concentration of 1×10^−2 M and stored at −20° C. Six preparations are typically run in parallel; one preparation per run incorporates a positive control. All data from the voltage clamps are collected via a computer interface and analyzed off-line.
Dose-effect relationships for all compounds are considered and analyzed by the Prism 3.0 program. EC50 values, maximal effective concentrations are calculated and compared to positive controls.
Utilizing the tests set forth above, Table 3 summaries the ENaC blocking ability of some of the amides of this invention when assayed in canine bronchial epithelium.

[3] = 0.12% sodium chloride solution, 0.12% NaCl solution, read-out: S1 = Solubility in 0.12% NaCl Solution

| SMILES | melting point [°C] | IC50 [2] [nM] | also measured |
| --- | --- | --- | --- |
| N=C(NCCCCc1ccc(OCC(=O)OCCN2CCCCC2)cc1)NC(=O)c1nc(Cl)c(N)nc1N | 60 to 62 |  |  |
| N=C(NCCCCc1ccc(OCC(=O)OCCN)cc1)NC(=O)c1nc(Cl)c(N)nc1N (as salt: hydrochloride) | 66 to 68 |  |  |
| N=C(NCCCCc1ccc(OCC(=O)OCC2CCNCC2)cc1)NC(=O)c1nc(Cl)c(N)nc1N (as salt: hydrochloride) | 100 to 102 |  |  |
| CN(C)CCCNC(=O)COc1ccc(CCCCNC(=N)NC(=O)c2nc(Cl)c(N)nc2N)cc1 (as salt: methanesulfonate) | 187 to 190 |  |  |
| CS(=O)(=O)O.CS(=O)(=O)O.N=C(NCCCCc1ccc(C(=O)N2CCNCC2)cc1)NC(=O)c1nc(Cl)c(N)nc1N [PSA23607, N-(3,5-Diamino-6-chloropyrazine-2-carbonyl)-N′-{4-[4-(piperazine-1-carbonyl)phenyl]butyl}guanidine bis-methanesulfonate] | 122 to 124 | 12.5 ± 0.5 | solubility ([1]; 0.12% NaCl solution, read-out: S1 = Solubility in 0.12% NaCl Solution): > 5000 µg/mL |
| N=C(NCCCCc1ccc(OCC(N)=O)cc1)NC(=O)c1nc(Cl)c(N)nc1N [compound 9714] |  | 15.2 | solubility [1, 3]: < 100 µg/mL; solubility ([1]; 0.9% sodium chloride solution (normal saline), 0.9% NaCl solution (normal saline), read-out: S2 = Solubility in 0.9% NaCl Solution (normal Saline)): < 100 µg/mL; Fold Amiloride (PSA4022 = 100) [2]: 62 |
| N=C(NCCCCc1ccc(OCC(=O)NCCN)cc1)NC(=O)c1nc(Cl)c(N)nc1N [compound 237778] |  | 5 ± 2 | solubility [1, 3]: > 5000 µg/mL; Fold Amiloride (PSA4022 = 100) [2]: 146 |
